{"source": "the NIST ThermoML archive (doi:10.1016/j.jct.2016.07.011)", "conditions": "Liquid; for mass density / viscosity: 101.33 kPa; for mass density: Vibrating tube method; for viscosity: Falling or rolling sphere viscometry; for vapor or sublimation pressure: Ebulliometric method (Recirculating still)", "note": "Numbers after ± are expanded uncertainties."}
{"smiles": "OCC(F)(F)C(F)(F)C(F)(F)C(F)F", "note": "[2,2,3,3,4,4,5,5-octafluoro-1-pentanol]", "values": [{"measurement": "mass density", "setting": "293.15 K", "value": "1674.2 ± 2", "unit": "kg/m3"}, {"measurement": "viscosity", "setting": "295.65 K", "value": "13.11 ± 0.18", "unit": "mPa·s"}, {"measurement": "viscosity", "setting": "297.55 K", "value": "12.16 ± 0.18", "unit": "mPa·s"}, {"measurement": "viscosity", "setting": "300.15 K", "value": "10.64 ± 0.17", "unit": "mPa·s"}, {"measurement": "mass density", "setting": "301.55 K", "value": "1667 ± 2", "unit": "kg/m3"}, {"measurement": "viscosity", "setting": "302.15 K", "value": "9.897 ± 0.17", "unit": "mPa·s"}, {"measurement": "viscosity", "setting": "304.15 K", "value": "8.739 ± 0.16", "unit": "mPa·s"}, {"measurement": "viscosity", "setting": "306.15 K", "value": "8.04 ± 0.16", "unit": "mPa·s"}, {"measurement": "mass density", "setting": "306.15 K", "value": "1659 ± 2", "unit": "kg/m3"}, {"measurement": "viscosity", "setting": "307.65 K", "value": "7.416 ± 0.15", "unit": "mPa·s"}, {"measurement": "mass density", "setting": "309.05 K", "value": "1655.2 ± 2", "unit": "kg/m3"}, {"measurement": "viscosity", "setting": "309.15 K", "value": "7.072 ± 0.15", "unit": "mPa·s"}, {"measurement": "viscosity", "setting": "311.65 K", "value": "6.29 ± 0.15", "unit": "mPa·s"}, {"measurement": "mass density", "setting": "312.65 K", "value": "1649.2 ± 2", "unit": "kg/m3"}, {"measurement": "viscosity", "setting": "313.15 K", "value": "5.94 ± 0.15", "unit": "mPa·s"}, {"measurement": "mass density", "setting": "316.15 K", "value": "1643 ± 2", "unit": "kg/m3"}, {"measurement": "viscosity", "setting": "318.15 K", "value": "4.822 ± 0.15", "unit": "mPa·s"}, {"measurement": "mass density", "setting": "319.35 K", "value": "1636.4 ± 2", "unit": "kg/m3"}, {"measurement": "viscosity", "setting": "323.15 K", "value": "3.855 ± 0.14", "unit": "mPa·s"}, {"measurement": "mass density", "setting": "323.25 K", "value": "1630.4 ± 2", "unit": "kg/m3"}, {"measurement": "mass density", "setting": "327.05 K", "value": "1623.2 ± 2", "unit": "kg/m3"}, {"measurement": "viscosity", "setting": "328.15 K", "value": "3.298 ± 0.14", "unit": "mPa·s"}, {"measurement": "mass density", "setting": "330.65 K", "value": "1617.8 ± 2", "unit": "kg/m3"}, {"measurement": "viscosity", "setting": "333.15 K", "value": "2.782 ± 0.14", "unit": "mPa·s"}, {"measurement": "mass density", "setting": "334.35 K", "value": "1609.6 ± 2", "unit": "kg/m3"}, {"measurement": "mass density", "setting": "338.25 K", "value": "1603.8 ± 2", "unit": "kg/m3"}, {"measurement": "mass density", "setting": "342.25 K", "value": "1596 ± 2", "unit": "kg/m3"}, {"measurement": "vapor or sublimation pressure", "setting": "413.25 K", "value": "101.3 ± 10", "unit": "kPa"}, {"measurement": "vapor or sublimation pressure", "setting": "413.57 K", "value": "101.3 ± 10", "unit": "kPa"}]}
{"smiles": "OCC(F)(F)C(F)F", "note": "[2,2,3,3-tetrafluoro-1-propanol]", "values": [{"measurement": "mass density", "setting": "293.15 K", "value": "1493.2 ± 2", "unit": "kg/m3"}, {"measurement": "viscosity", "setting": "295.65 K", "value": "5.029 ± 0.15", "unit": "mPa·s"}, {"measurement": "viscosity", "setting": "298.65 K", "value": "4.489 ± 0.14", "unit": "mPa·s"}, {"measurement": "viscosity", "setting": "300.15 K", "value": "4.274 ± 0.14", "unit": "mPa·s"}, {"measurement": "mass density", "setting": "301.55 K", "value": "1482.8 ± 2", "unit": "kg/m3"}, {"measurement": "viscosity", "setting": "302.15 K", "value": "3.794 ± 0.14", "unit": "mPa·s"}, {"measurement": "viscosity", "setting": "304.15 K", "value": "3.595 ± 0.14", "unit": "mPa·s"}, {"measurement": "viscosity", "setting": "306.15 K", "value": "3.26 ± 0.14", "unit": "mPa·s"}, {"measurement": "mass density", "setting": "306.15 K", "value": "1474.2 ± 2", "unit": "kg/m3"}, {"measurement": "viscosity", "setting": "307.65 K", "value": "3.067 ± 0.14", "unit": "mPa·s"}, {"measurement": "mass density", "setting": "309.05 K", "value": "1468.6 ± 2", "unit": "kg/m3"}, {"measurement": "viscosity", "setting": "309.15 K", "value": "2.954 ± 0.14", "unit": "mPa·s"}, {"measurement": "viscosity", "setting": "311.65 K", "value": "2.703 ± 0.14", "unit": "mPa·s"}, {"measurement": "mass density", "setting": "312.65 K", "value": "1460.2 ± 2", "unit": "kg/m3"}, {"measurement": "viscosity", "setting": "313.15 K", "value": "2.568 ± 0.14", "unit": "mPa·s"}, {"measurement": "mass density", "setting": "316.15 K", "value": "1454.2 ± 2", "unit": "kg/m3"}, {"measurement": "viscosity", "setting": "318.15 K", "value": "2.153 ± 0.14", "unit": "mPa·s"}, {"measurement": "mass density", "setting": "319.35 K", "value": "1447.6 ± 2", "unit": "kg/m3"}, {"measurement": "viscosity", "setting": "323.15 K", "value": "1.848 ± 0.14", "unit": "mPa·s"}, {"measurement": "mass density", "setting": "323.25 K", "value": "1441.8 ± 2", "unit": "kg/m3"}, {"measurement": "mass density", "setting": "327.05 K", "value": "1434 ± 2", "unit": "kg/m3"}, {"measurement": "viscosity", "setting": "328.15 K", "value": "1.623 ± 0.14", "unit": "mPa·s"}, {"measurement": "mass density", "setting": "330.65 K", "value": "1427.4 ± 2", "unit": "kg/m3"}, {"measurement": "viscosity", "setting": "333.15 K", "value": "1.408 ± 0.14", "unit": "mPa·s"}, {"measurement": "mass density", "setting": "334.35 K", "value": "1416.8 ± 2", "unit": "kg/m3"}, {"measurement": "mass density", "setting": "338.25 K", "value": "1409 ± 2", "unit": "kg/m3"}, {"measurement": "mass density", "setting": "342.25 K", "value": "1401 ± 2", "unit": "kg/m3"}, {"measurement": "vapor or sublimation pressure", "setting": "382.28 K", "value": "101.3 ± 10", "unit": "kPa"}]}
{"smiles": "CO", "note": "[methanol]", "values": [{"measurement": "vapor or sublimation pressure", "setting": "337.45 K", "value": "101.3 ± 10", "unit": "kPa"}]}
